Drawing on patent US9242970B2 (ACTELION PHARMACEUTICALS LTD., priority 2010, dated 2016), this text covers IC50 for 35 compounds.

pIC50: −log10 of the molar value. Where two headings read alike, the source gives them in different places.

The target in one experiment is human orexin-1 receptor (Homo sapiens (Human), UniProt O43613). The experiment in a line: In vitro assay: intracellular calcium measurements (FLIPR), antagonistic activity. Type of experiment: cell-based. The settings on record: CHO cells, 3 nM orexin-A, marked values are geometric means of n = 2-6, read-out: IC50 OX1. For orientation: A change in cytosolic calcium serves as a functional read-out for many receptors and channels.

The target of a further experiment is human orexin-2 receptor (Homo sapiens (Human), UniProt O43614). The description is as above. Type of experiment: cell-based. The conditions noted are these: CHO cells, 3 nM orexin-A, marked values are geometric means of n = 2-6, read-out: IC50 OX2.
The mark [1] stands for this setting: compound incubation time of 10 min.

Chain of human orexin-1 receptor (O43613 whole entry): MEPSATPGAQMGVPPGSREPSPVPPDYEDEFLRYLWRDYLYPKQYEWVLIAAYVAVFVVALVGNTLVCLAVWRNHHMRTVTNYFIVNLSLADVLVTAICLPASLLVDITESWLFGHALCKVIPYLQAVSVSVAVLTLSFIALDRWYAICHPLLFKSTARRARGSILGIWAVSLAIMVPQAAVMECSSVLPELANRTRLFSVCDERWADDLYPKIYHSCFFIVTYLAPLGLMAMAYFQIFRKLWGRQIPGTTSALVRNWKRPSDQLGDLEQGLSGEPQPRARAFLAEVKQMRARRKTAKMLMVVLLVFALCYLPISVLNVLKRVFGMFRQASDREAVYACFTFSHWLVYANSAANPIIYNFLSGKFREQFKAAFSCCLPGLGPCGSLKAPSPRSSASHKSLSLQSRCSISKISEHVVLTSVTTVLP
Chain of human orexin-2 receptor (O43614 whole entry): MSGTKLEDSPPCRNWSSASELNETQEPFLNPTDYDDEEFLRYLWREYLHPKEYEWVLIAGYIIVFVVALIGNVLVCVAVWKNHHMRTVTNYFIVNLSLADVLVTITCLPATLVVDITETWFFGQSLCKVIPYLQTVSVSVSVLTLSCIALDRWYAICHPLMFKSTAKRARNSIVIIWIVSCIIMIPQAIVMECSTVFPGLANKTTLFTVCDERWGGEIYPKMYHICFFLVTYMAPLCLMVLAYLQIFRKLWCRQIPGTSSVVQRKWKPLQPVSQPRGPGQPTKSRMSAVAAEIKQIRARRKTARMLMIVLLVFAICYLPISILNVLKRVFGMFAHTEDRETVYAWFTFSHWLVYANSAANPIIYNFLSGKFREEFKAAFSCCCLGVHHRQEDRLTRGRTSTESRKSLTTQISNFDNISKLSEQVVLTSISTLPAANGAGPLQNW

As for `COc1cccc(OC)c1C1CCCC(=O)N1Cc1ccc(Oc2ccccc2)cc1` (stereo not shown) [Example 164, 6-(2,6-dimethoxyphenyl)-1-(4-phenoxybenzyl)piperidin-2-one], the pIC50 is 6.39 on human orexin-1 receptor (setting [1]) and 7.57 at human orexin-2 receptor (setting [1]).
The like results for `COc1cccc(OC)c1C1CCCC(=O)N1Cc1ccc(OC(F)F)cc1` (stereo not shown) [Example 165, 1-(4-(difluoromethoxy)benzyl)-6-(2,6-dimethoxyphenyl)piperidin-2-one] were, in that order, 6.65 and 7.51.
As for `COc1cccc(OC)c1C1CCCC(=O)N1Cc1ccc2c(c1)OCO2` (stereo not shown) [Example 166, 1-(benzo[d][1,3]dioxol-5-ylmethyl)-6-(2,6-dimethoxyphenyl)piperidin-2-one], the pIC50 was 5.76 on human orexin-1 receptor (setting [1]) and 6.26 at human orexin-2 receptor (setting [1]).
For `COc1cc(Cl)cc(OC)c1C1CCCC(=O)N1Cc1ccc(OC(F)(F)F)cc1` (stereo not shown) [Example 167, 6-(4-chloro-2,6-dimethoxyphenyl)-1-(4-(trifluoromethoxy)benzyl)piperidin-2-one], in that order: 6.64 and 7.55.
For `COc1cccc(OC)c1C1CCCC(=O)N1Cc1ccc(-n2cccn2)cc1` (stereo not shown) [Example 168, 1-(4-(1H-pyrazol-1-yl)benzyl)-6-(2,6-dimethoxyphenyl)piperidin-2-one], in that order: 5.74 and 6.34.
For the compound `COc1cccc(OC)c1C1CCCC(=O)N1Cc1ccc(-n2cccc2)cc1` (stereo not shown) [Example 169, 1-(4-(1H-pyrrol-1-yl)benzyl)-6-(2,6-dimethoxyphenyl)piperidin-2-one], the pIC50 on human orexin-1 receptor (setting [1]) was 5.80; at human orexin-2 receptor (setting [1]), 6.72.
As for `COc1cccc(OC)c1C1CCCC(=O)N1Cc1ccc2nonc2c1` (stereo not shown) [Example 170, 1-(benzo[c][1,2,5]oxadiazol-5-ylmethyl)-6-(2,6-dimethoxyphenyl)piperidin-2-one], the negative logarithm of the IC50 (pIC50) on human orexin-1 receptor (setting [1]) is 5.62; on human orexin-2 receptor (setting [1]) it was 6.12.
Regarding `COc1ccc2cc(CN3C(=O)CCCC3c3c(OC)cccc3OC)ccc2c1` (stereo not shown) [Example 171, 6-(2,6-dimethoxyphenyl)-1-((6-methoxynaphthalen-2-yl)methyl)piperidin-2-one], the figures for the negative-log IC50 (pIC50) at human orexin-1 receptor (setting [1]) and at human orexin-2 receptor (setting [1]) were 6.91 and 7.18, respectively.
The like results for `COc1cc(OC)c(C2CCCC(=O)N2Cc2ccc(OC(F)(F)F)cc2)c(OC)c1` (stereo not shown) [Example 172, 1-(4-(trifluoromethoxy)benzyl)-6-(2,4,6-trimethoxyphenyl)piperidin-2-one] were, in that order, 6.48 and 6.97.
`COc1cccc(OC)c1C1CC(C)CC(=O)N1Cc1ccc(OC(F)(F)F)cc1` (stereo not shown) [Example 173, 6-(2,6-dimethoxyphenyl)-4-methyl-1-(4-(trifluoromethoxy)benzyl)piperidin-2-one]: the pIC50 at human orexin-1 receptor (setting [1]) is 6.27; on human orexin-2 receptor (setting [1]) it was 6.53.
As for `COc1cccc(OC)c1C1CC(C)(C)CC(=O)N1Cc1ccc(OC(F)(F)F)cc1` (stereo not shown) [Example 174, 6-(2,6-dimethoxyphenyl)-4,4-dimethyl-1-(4(trifluoromethoxy)benzyl)piperidin-2-one], the values for the pIC50 on human orexin-1 receptor (setting [1]) and on human orexin-2 receptor (setting [1]) were 5.74 and 5.97, respectively.
As to `COc1cccc(OC)c1C1CCCC(=O)N1Cc1cccc(OC(F)(F)F)c1` (stereo not shown) [Example 175, 6-(2,6-dimethoxyphenyl)-1-(3-(trifluoromethoxy)benzyl)piperidin-2-one], the pIC50 at human orexin-1 receptor (setting [1]) is 6.87; on human orexin-2 receptor (setting [1]), 7.03.
`COc1cccc(OC)c1C1CCCC(=O)N1Cc1ccc(OCCF)cc1` (stereo not shown) [Example 176, 6-(2,6-dimethoxyphenyl)-1-(4-(2-fluoroethoxy)benzyl)piperidin-2-one]: the pIC50 on human orexin-1 receptor (setting [1]) was 6.49; on human orexin-2 receptor (setting [1]), 7.21.
Regarding `COc1cccc(OC)c1C1CCCC(=O)N1Cc1ccc(OC(F)F)nc1` (stereo not shown) [Example 177, 1-((6-(difluoromethoxy)pyridin-3-yl)methyl)-6-(2,6-dimethoxyphenyl)piperidin-2-one], the figures for the pIC50 on human orexin-1 receptor (setting [1]) and at human orexin-2 receptor (setting [1]) were 6.45 and 7.04, respectively.
Consider `COc1cccc(OC)c1C1CCCC(=O)N1Cc1cccc(OC(F)F)c1` (stereo not shown) [Example 178, 1-(3-(difluoromethoxy)benzyl)-6-(2,6-dimethoxyphenyl)piperidin-2-one], for which the figures for the pIC50 on human orexin-1 receptor (setting [1]) and on human orexin-2 receptor (setting [1]) were 6.67 and 7.11, respectively.
For the compound `COc1cccc(OC)c1C1CCCC(=O)N1Cc1cccc(Oc2ccccc2)c1` (stereo not shown) [Example 179, 6-(2,6-dimethoxyphenyl)-1-(3-phenoxybenzyl)piperidin-2-one], the pIC50 at human orexin-1 receptor (setting [1]) is 6.65; at human orexin-2 receptor (setting [1]), 7.38.
As to `COc1cccc(OC)c1C1CCCC(=O)N1Cc1cc2ccccc2o1` (stereo not shown) [Example 180, 1-(benzofuran-2-ylmethyl)-6-(2,6-dimethoxyphenyl)piperidin-2-one], the negative logarithm of the IC50 (pIC50) on human orexin-1 receptor (setting [1]) is 5.84; at human orexin-2 receptor (setting [1]), 6.77.
For `COc1cccc(OC)c1C1CCCC(=O)N1Cc1cc2ccccc2s1` (stereo not shown) [Example 181, 1-(benzo[b]thiophen-2-ylmethyl)-6-(2,6-dimethoxyphenyl)piperidin-2-one], the pIC50 at human orexin-1 receptor (setting [1]) was 6.09; at human orexin-2 receptor (setting [1]) it was 6.60.
Consider `COc1cccc(OC)c1C1CCCC(=O)N1Cc1ccc2c(c1)OC(F)(F)O2` (stereo not shown) [Example 182, 1-((2,2-difluorobenzo[d][1,3]dioxol-5-yl)methyl)-6-(2,6-dimethoxyphenyl)piperidin-2-one], for which the negative logarithm of the IC50 (pIC50) at human orexin-1 receptor (setting [1]) was 6.55; on human orexin-2 receptor (setting [1]) it was 6.75.
The like results for `COc1cccc(OC)c1C1CCCC(=O)N1Cc1cccc(OC(F)F)n1` (stereo not shown) [Example 183, 1-((6-(difluoromethoxy)pyridin-2-yl)methyl)-6-(2,6-dimethoxyphenyl)piperidin-2-one] were, in that order, 6.19 and 7.19.
For `COc1cccc(OC)c1C1CCCC(=O)N1C(C)c1cnc(OC(F)F)c(Cl)c1` (stereo not shown) [Example 185, 1-(1-(5-chloro-6-(difluoromethoxy)pyridin-3-yl)ethyl)-6-(2,6-dimethoxyphenyl)piperidin-2-one], in that order: 6.49 and 7.47.
On to `CCC(c1ccc(OC(F)(F)F)cc1)N1C(=O)CCCC1c1c(OC)cccc1OC` (stereo not shown) [Example 186, 6-(2,6-dimethoxyphenyl)-1-(1-(4-(trifluoromethoxy)phenyl)propyl)piperidin-2-one], for which the pIC50 on human orexin-1 receptor (setting [1]) is 5.56; at human orexin-2 receptor (setting [1]) it was 5.25.
As for `COc1cccc(OC)c1C1CCCC(=O)N1Cc1ccc(OC(F)F)cn1` (stereo not shown) [Example 187, 1-((5-(difluoromethoxy)pyridin-2-yl)methyl)-6-(2,6-dimethoxyphenyl)piperidin-2-one], the negative-log IC50 (pIC50) on human orexin-1 receptor (setting [1]) is 6.63; at human orexin-2 receptor (setting [1]), 7.15.
For `COc1cccc(OC)c1C1CCCC(=O)N1Cc1cc(OC(F)F)ccn1` (stereo not shown) [Example 188, 1-((4-(difluoromethoxy)pyridin-2-yl)methyl)-6-(2,6-dimethoxyphenyl)piperidin-2-one], the pIC50 at human orexin-1 receptor (setting [1]) is 5.38; on human orexin-2 receptor (setting [1]), 6.32.
`COc1cccc(OC)c1C1CCCC(=O)N1Cc1cccc(-c2ccccc2)c1` (stereo not shown) [Example 189, 1-([1,1′-biphenyl]-3-ylmethyl)-6-(2,6-dimethoxyphenyl)piperidin-2-one]: the results for the pIC50 on human orexin-1 receptor (compound incubation 120 min) and on human orexin-2 receptor (compound incubation 120 min) were 7.77 and 7.92, respectively.
Turning to `COc1cccc(OC)c1C1CCCC(=O)N1Cc1ccccc1-c1ccccc1` (stereo not shown) [Example 190, 1-([1,1′-biphenyl]-2-ylmethyl)-6-(2,6-dimethoxyphenyl)piperidin-2-one], the figures for the pIC50 on human orexin-1 receptor (setting [1]) and on human orexin-2 receptor (setting [1]) were 5.71 and 6.29, respectively.
For `COc1cccc(OC)c1C1CCCC(=O)N1Cc1ccccc1Oc1ccccc1` (stereo not shown) [Example 191, 6-(2,6-dimethoxyphenyl)-1-(2-phenoxybenzyl)piperidin-2-one], the pIC50 was 6.43 on human orexin-1 receptor (setting [1]) and 7.30 on human orexin-2 receptor (setting [1]).
As for `COc1cccc(OC)c1C1CCCC(=O)N1Cc1ccc(Oc2ccccc2)nc1` (stereo not shown) [Example 192, 6-(2,6-dimethoxyphenyl)-1-((6-phenoxypyridin-3-yl)methyl)piperidin-2-one], the pIC50 on human orexin-1 receptor (setting [1]) is 6.44; on human orexin-2 receptor (setting [1]) it was 7.54.
For `COc1cccc(OC)c1C1CCCCC(=O)N1Cc1ccc(OC(F)(F)F)cc1` (stereo not shown) [Example 193, 7-(2,6-dimethoxyphenyl)-1-(4-(trifluoromethoxy)benzyl)azepan-2-one], in that order: 6.59 and 7.18.
For the compound `CCOc1ccccc1C1CCC(=O)N1Cc1ccc(F)cc1` (stereo not shown) [Example 194, 5-(2-ethoxyphenyl)-1-(4-fluorobenzyl)pyrrolidin-2-one], the negative logarithm of the IC50 (pIC50) on human orexin-1 receptor (setting [1]) is less than 4.90; at human orexin-2 receptor (setting [1]) it was 6.17.
Consider `CCOc1ccccc1C1CCC(=O)N1Cc1ccc(OC(F)(F)F)cc1` (stereo not shown) [Example 195, 5-(2-ethoxyphenyl)-1-(4-(trifluoromethoxy)benzyl)pyrrolidin-2-one], for which the pIC50 was 6.09 on human orexin-1 receptor (setting [1]) and 6.62 on human orexin-2 receptor (setting [1]).
For `COc1cccc(OC)c1C1CCC(=O)N1Cc1ccc(OC(F)(F)F)cc1` (stereo not shown) [Example 196, 5-(2,6-dimethoxyphenyl)-1-(4-(trifluoromethoxy)benzyl)pyrrolidin-2-one], the negative-log IC50 (pIC50) was 6.14 on human orexin-1 receptor (setting [1]) and 6.80 on human orexin-2 receptor (setting [1]).
For the compound `COc1cccc(OC)c1C1CCC(=O)N1Cc1ccc(F)cc1` (stereo not shown) [Example 197, 5-(2,6-dimethoxyphenyl)-1-(4-fluorobenzyl)pyrrolidin-2-one], the negative logarithm of the IC50 (pIC50) at human orexin-1 receptor (setting [1]) was less than 4.98; at human orexin-2 receptor (setting [1]), 5.88.
As to `COc1cccc(OC)c1C1CC(C)C(=O)N1Cc1cccc(OC(F)F)c1` (stereo not shown) [Example 198, 1-(3-(difluoromethoxy)benzyl)-5-(2,6-dimethoxyphenyl)-3-methylpyrrolidin-2-one], the pIC50 was 6.93 at human orexin-1 receptor (setting [1]) and 7.02 on human orexin-2 receptor (setting [1]).
Consider `COc1cccc(OC)c1C1CC(C)C(=O)N1Cc1ccc(OC(F)F)nc1` (stereo not shown) [Example 199, 1-((6-(difluoromethoxy)pyridin-3-yl)methyl)-5-(2,6-dimethoxyphenyl)-3-methylpyrrolidin-2-one], for which the pIC50 was 6.45 at human orexin-1 receptor (setting [1]) and 6.21 on human orexin-2 receptor (setting [1]).

A word on the pIC50: it is the IC50 on a negative log10 scale, so that one unit is a factor of ten.
